Source: patent publication US20240409585A1, “MACROCYCLIC IMMUNOMODULATORS” (priority 2021, published 2024)
Like-named read-outs stand apart in the source and are kept apart here. Bridge positions count the residues as written; N and C are the ends. Square brackets hold non-standard residues; d marks the D form. Peptide text beside a SMILES is read from it. * marks the point of attachment. ξ: configuration not given here. Phe(3-CF3) = N[C@@H](Cc1cccc(C(F)(F)F)c1)C(=O)O; Ala(morpholin-4-yl) = N[C@@H](CN1CCOCC1)C(=O)O; Phe(4-COOH) = N[C@@H](Cc1ccc(C(=O)O)cc1)C(=O)O; Phe(3,4-F2) = N[C@@H](Cc1ccc(F)c(F)c1)C(=O)O; Bip = N[C@@H](Cc1ccc(-c2ccccc2)cc1)C(=O)O; Phe(3-Me) = Cc1cccc(C[C@H](N)C(=O)O)c1; Phe(4-I) = N[C@@H](Cc1ccc(I)cc1)C(=O)O; Gly(cPent) = N[C@H](C(=O)O)C1CCCC1; Val(3-OH) = CC(C)(O)[C@H](N)C(=O)O; 4Pal = N[C@@H](Cc1ccncc1)C(=O)O; 3Thi = N[C@@H](Cc1ccsc1)C(=O)O; Cha = N[C@@H](CC1CCCCC1)C(=O)O; Cit = NC(=O)NCCC[C@H](N)C(=O)O; Ile(3ξ) = CCC(C)[C@H](N)C(=O)O; Thr(3ξ) = CC(O)[C@H](N)C(=O)O; NMeNle = CCCC[C@H](NC)C(=O)O; ξIle = CC[C@H](C)C(N)C(=O)O; dDab = NCC[C@@H](N)C(=O)O; Carboxymethyl = O=C(O)C*; NMeA = CN[C@@H](C)C(=O)O; Nle = CCCC[C@H](N)C(=O)O; Orn = NCCC[C@H](N)C(=O)O; Pra = C#CC[C@H](N)C(=O)O; Dab = NCC[C@H](N)C(=O)O; Dap = NC[C@H](N)C(=O)O

Biological target: T1, PE-labeled human PD-L1-Ig binding to Jurkat cell line over-expressing human PD-1 (Jurkat-PD-1) (Homo sapiens, UniProt Q15116)
T1 construct: expressed in transfected cells; host or cells: Jurkat
T1 sequence (Q15116 25-288): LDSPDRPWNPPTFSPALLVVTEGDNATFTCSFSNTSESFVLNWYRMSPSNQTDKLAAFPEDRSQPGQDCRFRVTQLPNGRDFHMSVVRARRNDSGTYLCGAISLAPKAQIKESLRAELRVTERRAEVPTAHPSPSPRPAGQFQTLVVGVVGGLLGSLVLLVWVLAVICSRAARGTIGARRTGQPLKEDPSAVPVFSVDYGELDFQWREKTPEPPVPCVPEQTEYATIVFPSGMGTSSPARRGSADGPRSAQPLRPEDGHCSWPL
Assay: Jurkat-PD-1 Cell Binding High-Content Screening Assay (CBA): Method 1
Details: Jurkat-hPD-1 cells, PE-labeled PD-L1-Ig 20 nM final

[1] = read-out: Jurkat HPDL1 PD1 IC50 (uM) (Method 1)

SMILES	IC50 [1] [µM]	IC50 (Jurkat HPDL1 PD1 IC50 (uM) (Method 1)) [µM]
CC(C)C[C@@H]1NC(=O)[C@H](CCCNC(=N)N)NC(=O)[C@@H](CC(C)C)NC(=O)[C@H](C)N(C)C(=O)[C@H](CCCNC(N)=O)NC(=O)[C@H](Cc2ccc(-c3ccccc3)cc2)NC(=O)[C@H](C(C)C)NC(=O)[C@H](Cc2c[nH]c3ccccc23)NC(=O)[C@H](CC(=O)O)NC(=O)[C@H](Cc2ccc(O)cc2)NC(=O)[C@H](CC(N)=O)NC(=O)CSC[C@@H](C(=O)N[C@@H](CCC(=O)O)C(N)=O)NC(=O)[C@H](CO)NC(=O)[C@H](C(C)C)NC1=O [Compound 1236] ({CH2CO}-NYDWV[Bip][Cit][NMeA][dL]RLVSCE-NH2; thioether N-14)	0.11	–
CC[C@H](C)C1NC(=O)[C@H](Cc2ccc(-c3ccccc3)cc2)NC(=O)[C@H](C(C)C)NC(=O)[C@H](Cc2c[nH]c3ccccc23)NC(=O)[C@H](CC(=O)O)NC(=O)[C@H](Cc2ccc(C(=O)O)cc2)NC(=O)[C@H](CC(N)=O)NC(=O)CSC[C@@H](C(=O)N[C@@H](C)C(N)=O)NC(=O)[C@H]([C@@H](C)O)NC(=O)[C@H](C(C)C)NC(=O)[C@H](CC(C)C)NC(=O)[C@H](CCN)NC(=O)[C@@H](CC(C)C)NC(=O)[C@H](C)N(C)C1=O (stereo partly drawn) [Compound 1395] ({CH2CO}-N[Phe(4-COOH)]DWV[Bip][ξIle][NMeA][dL][Dab]LVTCA-NH2; thioether N-14)	0.02	–
CC(C)C[C@H]1NC(=O)[C@H](C)N(C)C(=O)[C@H](CCC(N)=O)NC(=O)[C@H](Cc2ccc(-c3ccccc3)cc2)NC(=O)[C@H](Cc2ccc(C(=O)O)cc2)NC(=O)[C@H](Cc2cccc(C(F)(F)F)c2)NC(=O)[C@H](CC(N)=O)NC(=O)[C@H](Cc2ccc(OCC(=O)O)cc2)NC(=O)[C@H](CN2CCOCC2)NC(=O)CSC[C@@H](C(=O)N[C@@H](CCN)C(N)=O)NC(=O)[C@H](CCCN)NC(=O)[C@H](C(C)C)NC(=O)[C@H](CC2CCCCC2)NC(=O)[C@H](CCN)NC1=O [Example 2280] ({CH2CO}-[Ala(morpholin-4-yl)]Y(Carboxymethyl)N[Phe(3-CF3)][Phe(4-COOH)][Bip]Q[NMeA][dL][Dab][Cha]V[Orn]C[Dab]-NH2; thioether N-14)	0.14	–
CC[C@H](C)[C@@H]1NC(=O)[C@H](Cc2ccc(-c3ccccc3)cc2)NC(=O)[C@H](C(C)C)NC(=O)[C@H](Cc2c[nH]c3ccccc23)NC(=O)[C@H](CC(=O)O)NC(=O)[C@H](Cc2ccc(O)cc2)NC(=O)[C@H](CCC(N)=O)NC(=O)CSC[C@@H](C(=O)N[C@@H](C)C(N)=O)NC(=O)[C@H]([C@@H](C)O)NC(=O)[C@H](C(C)C)NC(=O)[C@H](CC(C)C)NC(=O)[C@H](CCN)NC(=O)[C@@H](CC(C)C)NC(=O)[C@H](C)N(C)C1=O [Compound 1391] ({CH2CO}-QYDWV[Bip]I[NMeA][dL][Dab]LVTCA-NH2; thioether N-14)	0.03	–
Cc1cccc(C[C@@H]2NC(=O)[C@H](CC(=O)O)NC(=O)[C@H](Cc3ccc(C(=O)O)cc3)NC(=O)[C@H](Cc3ccsc3)NC(=O)CSC[C@@H](C(=O)N[C@@H](CCN)C(N)=O)NC(=O)[C@H](CO)NC(=O)[C@H](C(C)(C)O)NC(=O)[C@H](CC3CCCCC3)NC(=O)[C@H](CCN)NC(=O)[C@@H](CC(C)C)NC(=O)[C@H](C)N(C)C(=O)[C@H](Cc3ccc(OCC(=O)O)cc3)NC(=O)[C@H](Cc3ccc(-c4ccccc4)cc3)NC(=O)[C@H](Cc3ccc(OCC(=O)O)cc3)NC2=O)c1 [Compound 2133] ({CH2CO}-[3Thi][Phe(4-COOH)]D[Phe(3-Me)]Y(Carboxymethyl)[Bip]Y(Carboxymethyl)[NMeA][dL][Dab][Cha][Val(3-OH)]SC[Dab]-NH2; thioether N-14)	0.01	–
C#CC[C@H](NC(=O)CNC(=O)[C@@H]1CSCC(=O)N[C@@H]([C@@H](C)O)C(=O)N[C@@H](Cc2ccc(OCC(=O)O)cc2)C(=O)N[C@@H](CC(=O)O)C(=O)N[C@@H](Cc2cccc(C)c2)C(=O)N[C@@H](Cc2ccc(OCC(=O)O)cc2)C(=O)N[C@@H](Cc2ccc(-c3ccccc3)cc2)C(=O)N[C@@H](Cc2ccc(OCC(=O)O)cc2)C(=O)N(C)[C@@H](C)C(=O)N[C@H](CC(C)C)C(=O)N[C@@H](CCN)C(=O)N[C@@H](CC2CCCCC2)C(=O)N[C@@H](C(C)(C)O)C(=O)N[C@@H](CCC(=O)O)C(=O)N1)C(N)=O [Compound 1939] ({CH2CO}-TY(Carboxymethyl)D[Phe(3-Me)]Y(Carboxymethyl)[Bip]Y(Carboxymethyl)[NMeA][dL][Dab][Cha][Val(3-OH)]ECG[Pra]-NH2; thioether N-14)	0.11	–
CC(C)C[C@@H]1NC(=O)[C@H](CCCNC(=N)N)NC(=O)[C@H](Cc2ccc(F)c(F)c2)NC(=O)[C@H](C)N(C)C(=O)[C@H](CCCNC(=N)N)NC(=O)[C@H](Cc2ccc(-c3ccccc3)cc2)NC(=O)[C@H](C(C)C)NC(=O)[C@H](Cc2c[nH]c3ccccc23)NC(=O)[C@H](CC(=O)O)NC(=O)[C@H](Cc2ccc(O)cc2)NC(=O)[C@H](Cc2ccccc2)NC(=O)CSC[C@@H](C(=O)NCC(N)=O)NC(=O)[C@H](CO)NC(=O)[C@H](C(C)C)NC1=O [Compound 1015] ({CH2CO}-FYDWV[Bip]R[NMeA][Phe(3,4-F2)]RLVSCG-NH2; thioether N-14)	0.16	–
CCC(C)[C@@H]1NC(=O)[C@H](Cc2ccc(-c3ccccc3)cc2)NC(=O)[C@H](CC(C)C)NC(=O)[C@H](Cc2c[nH]c3ccccc23)NC(=O)[C@H](CC(=O)O)NC(=O)[C@H](Cc2ccc(OCC(=O)O)cc2)NC(=O)[C@H](C(C)O)NC(=O)CSC[C@@H](C(=O)N[C@@H](CC(N)=O)C(=O)O)NC(=O)[C@H](C2CCCC2)NC(=O)[C@H](C(C)C)NC(=O)[C@H](CC(C)C)NC(=O)[C@H](CCN)NC(=O)[C@@H](CC(C)C)NC(=O)[C@H](C)N(C)C1=O (stereo partly drawn) [Compound 2227] ({CH2CO}-[Thr(3ξ)]Y(Carboxymethyl)DWL[Bip][Ile(3ξ)][NMeA][dL][Dab]LV[Gly(cPent)]CN-OH; thioether N-14)	0.81	–
CC(C)C[C@@H]1NC(=O)[C@H](Cc2c[nH]c3ccccc23)NC(=O)[C@H](CC(=O)O)NC(=O)[C@H](Cc2ccc(O)cc2)NC(=O)[C@H](Cc2ccccc2)NC(=O)CSC[C@@H](C(=O)N[C@@H](C)C(N)=O)NC(=O)[C@H](CO)NC(=O)[C@H](CN)NC(=O)[C@H](CC(C)C)NC(=O)[C@H](CC(N)=O)NC(=O)[C@@H](C)NC(=O)[C@H](C)N(C)C(=O)[C@H](C(C)C)NC(=O)[C@H](Cc2ccc(-c3ccccc3)cc2)NC1=O [Compound 1532] ({CH2CO}-FYDWL[Bip]V[NMeA][dA]NL[Dap]SCA-NH2; thioether N-14)	0.17	–
CC(C)C[C@@H]1NC(=O)[C@H](CCCNC(=N)N)NC(=O)[C@@H](CC(C)C)NC(=O)[C@H](C)N(C)C(=O)[C@H](CCCNC(=N)N)NC(=O)[C@H](Cc2ccc(I)cc2)NC(=O)[C@H](C(C)C)NC(=O)[C@H](Cc2c[nH]c3ccccc23)NC(=O)[C@H](CC(=O)O)NC(=O)[C@H](Cc2ccc(O)cc2)NC(=O)[C@H](Cc2ccccc2)NC(=O)CSC[C@@H](C(=O)N[C@@H](C)C(N)=O)NC(=O)[C@H]([C@@H](C)O)NC(=O)[C@H](C(C)C)NC1=O [Compound 1089] ({CH2CO}-FYDWV[Phe(4-I)]R[NMeA][dL]RLVTCA-NH2; thioether N-14)	0.94	–
CCCC[C@@H]1NC(=O)[C@H](Cc2ccc(-c3ccccc3)cc2)NC(=O)[C@H](C(C)C)NC(=O)[C@H](Cc2c[nH]c3ccccc23)NC(=O)[C@H](CC(=O)O)NC(=O)[C@H](Cc2ccc(C(=O)O)cc2)NC(=O)[C@H](Cc2ccncc2)NC(=O)CSC[C@@H](C(=O)N[C@@H](CC(N)=O)C(N)=O)NC(=O)[C@H](CO)NC(=O)[C@H](C(C)C)NC(=O)[C@H](CC2CCCCC2)NC(=O)[C@H](CCN)NC(=O)[C@@H](C)NC(=O)[C@H](CCCC)N(C)C1=O [Compound 2089] ({CH2CO}-[4Pal][Phe(4-COOH)]DWV[Bip][Nle][NMeNle][dA][Dab][Cha]VSCN-NH2; thioether N-14)	0.05	–
CC(C)C[C@@H]1NC(=O)[C@H](CCC(=O)O)NC(=O)[C@@H](CC(C)C)NC(=O)[C@H](C)N(C)C(=O)[C@H](CCCCN)NC(=O)[C@H](Cc2ccc(-c3ccccc3)cc2)NC(=O)[C@H](C(C)C)NC(=O)[C@H](Cc2c[nH]c3ccccc23)NC(=O)[C@H](CC(=O)O)NC(=O)[C@H](Cc2ccc(O)cc2)NC(=O)[C@H](Cc2ccncc2)NC(=O)CSC[C@@H](C(=O)N[C@@H](C)C(N)=O)NC(=O)[C@H](C(C)O)NC(=O)[C@H](C(C)C)NC1=O (stereo partly drawn) [Compound 2058] ({CH2CO}-[4Pal]YDWV[Bip]K[NMeA][dL]ELV[Thr(3ξ)]CA-NH2; thioether N-14)	0.04	–
Cc1cccc(C[C@@H]2NC(=O)[C@H](CC(=O)O)NC(=O)[C@H](Cc3ccc(OCC(=O)O)cc3)NC(=O)[C@H](Cc3ccncc3)NC(=O)CSC[C@@H](C(=O)N[C@@H](C)C(N)=O)NC(=O)[C@H](CO)NC(=O)[C@H](Cc3ccccc3)NC(=O)[C@H](CC(C)C)NC(=O)[C@H](CC(N)=O)NC(=O)[C@@H](CC(C)C)NC(=O)[C@H](C)N(C)C(=O)[C@H](Cc3ccccc3)NC(=O)[C@H](Cc3ccc(-c4ccccc4)cc3)NC(=O)[C@H](CC(C)C)NC2=O)c1 [Compound 1588] ({CH2CO}-[4Pal]Y(Carboxymethyl)D[Phe(3-Me)]L[Bip]F[NMeA][dL]NLFSCA-NH2; thioether N-14)	–	0.32
Cc1cccc(C[C@@H]2NC(=O)[C@H](CC(=O)O)NC(=O)[C@H](Cc3ccc(OCC(=O)O)cc3)NC(=O)[C@H](CN)NC(=O)CSC[C@@H](C(=O)N[C@@H](CCN)C(N)=O)NC(=O)[C@@H](CCN)NC(=O)[C@H](C(C)C)NC(=O)[C@H](CC3CCCCC3)NC(=O)[C@H](CCN)NC(=O)[C@@H](CC(C)C)NC(=O)[C@H](C)N(C)C(=O)[C@H](Cc3ccc(O)cc3)NC(=O)[C@H](Cc3ccc(-c4ccccc4)cc3)NC(=O)[C@H](Cc3ccc(O)cc3)NC2=O)c1 [Compound 1873] ({CH2CO}-[Dap]Y(Carboxymethyl)D[Phe(3-Me)]Y[Bip]Y[NMeA][dL][Dab][Cha]V[dDab]C[Dab]-NH2; thioether N-14)	0.03	–
